Reference: US10501518B2 (priority 2013, dated 2019)
Starred links: 1 amine or outer side, 2 acyl side, 3 side chain; linkers in the order of their positions; H or OH if unused. Non-standard residues stand in square brackets, D forms with d. Residues, ends and D or L forms follow the SMILES beside them. *: point of attachment. NH(1S,2S-2-CONH2-cPent) = NC(=O)[C@H]1CCC[C@@H]1N*; X12 = O=C([C@H]1CCC[C@@H]1N[*:1])[*:2]; X13 = O=C([C@H]1CNC[C@@H]1N[*:1])[*:2]; ACPC(1S,2S) = N[C@H]1CCC[C@@H]1C(=O)*; hArg = N=C(N)NCCCC[C@H](N)C(=O)O; Aib = CC(C)(N)C(=O)O

Experiments:
[1] = mouse, in vivo; cited from earlier work
[2] = Stability in simulated gastric fluid; type: in vitro ADME

SMILES | bioavailability (previously shown) [1] | stability in simulated gastric fluid [2]
CC[C@H](C)[C@H](NC(=O)[C@H](CCC(=O)O)NC(=O)[C@H](C)NC(=O)[C@@H](NC(=O)[C@H](C)N)C(C)C)C(=O)N[C@@H](CCC(N)=O)C(=O)N[C@@H](CC(C)C)C(=O)N[C@@H](CCSC)C(=O)N[C@@H](Cc1cnc[nH]1)C(=O)N[C@@H](CCC(N)=O)C(=O)N[C@@H](CCCCNC(=N)N)C(=O)N[C@@H](C)C(=O)N[C@@H](CCCCN)C(=O)N[C@@H](Cc1c[nH]c2ccccc12)C(=O)N[C@@H](CC(C)C)C(=O)N[C@@H](CC(N)=O)C(=O)N[C@@H](CO)C(=O)N[C@@H](CCSC)C(=O)N[C@@H](CCCNC(=N)N)C(=O)N[C@@H](CCCNC(=N)N)C(=O)N[C@H](C(=O)N[C@@H](CCC(=O)O)C(=O)N[C@@H](Cc1c[nH]c2ccccc12)C(=O)N[C@@H](CC(C)C)C(=O)N[C@@H](CCCNC(=N)N)C(=O)N[C@@H](CCCCN)C(=O)N[C@@H](CCCCN)C(=O)N[C@@H](CC(C)C)C(=O)N[C@@H](CCC(N)=O)C(=O)N[C@@H](CC(=O)O)C(=O)N[C@H](C(=O)N[C@@H](Cc1cnc[nH]1)C(=O)N[C@@H](CC(N)=O)C(=O)N[C@@H](Cc1ccccc1)C(N)=O)C(C)C)C(C)C [M-PTH(1-34)] (H-AVAEIQLMHQ[hArg]AKWLNSMRRVEWLRKKLQDVHNF-NH2) | native-like bioavailability | 
CSCC[C@H](NC(=O)[C@H]1CCC[C@@H]1NC(=O)[C@H](CCC(N)=O)NC(=O)[C@H]1CCC[C@@H]1NC(=O)[C@H](CCC(=O)O)NC(=O)C(C)(C)NC(=O)[C@@H](NC(=O)[C@H]1CCC[C@@H]1N)C(C)C)C(=O)N[C@@H](Cc1cnc[nH]1)C(=O)N[C@@H](CCC(N)=O)C(=O)N[C@@H](CCCCNC(=N)N)C(=O)N[C@@H](C)C(=O)N[C@@H](CCCCN)C(=O)N[C@H]1CCC[C@@H]1C(=O)N[C@@H](CC(C)C)C(=O)N[C@@H](CC(N)=O)C(=O)N[C@@H](CO)C(=O)N[C@H]1CCC[C@@H]1C(=O)N[C@@H](CCCNC(=N)N)C(=O)N[C@@H](CCCNC(=N)N)C(=O)N[C@H](C(=O)N[C@H]1CNC[C@@H]1C(=O)N[C@@H](Cc1c[nH]c2ccccc12)C(=O)N[C@@H](CC(C)C)C(=O)N[C@@H](CCCNC(=N)N)C(=O)N[C@H]1CNC[C@@H]1C(=O)N[C@@H](CCCCN)C(=O)N[C@@H](CC(C)C)C(=O)N[C@@H](CCC(N)=O)C(=O)N[C@H]1CCC[C@@H]1C(=O)N[C@H](C(=O)N[C@@H](Cc1cnc[nH]1)C(=O)N[C@@H](CC(N)=O)C(=O)N[C@H]1CCC[C@@H]1C(N)=O)C(C)C)C(C)C [M-X1,5,7-FcycD6, XVUEXQXMHQ^hRAKXLNSXRRVZWLRZKLQXVHNX--NH2] ({ACPC(1S,2S)}-V[Aib]E[X12]Q[X12]MHQ[hArg]AK[X12]LNS[X12]RRV[X13]WLR[X13]KLQ[X12]VHN-{NH(1S,2S-2-CONH2-cPent)}) |  | good stability
